Experimental data published in article PMC11249646, “Small-Molecule Disruptors of the Interaction between Calcium- and Integrin-Binding Protein 1 and Integrin αIIbβ3 as Novel Antiplatelet Agents” (ACS Pharmacology & Translational Science, 2024).
pIC50: −log10 of the molar value. In brackets after ≈: the same amount, converted by molar mass. Like-named read-outs stand apart in the source and are kept apart here. Each block holds one compound with its values, some of them ahead of it.

Assays:
[1] = molecular target: T1, CIB1 and αIIb interaction (GST-CIB1 : F-αIIb peptide) (Homo sapiens, UniProt Q99828); assay: FP assay, 384-well format (screen); format: binding; parameters: 384-well SCREEN Efficacy (%): concentration or dose not given beside the values
T1 construct: made in house; host or cells: BL-21 plus RIL cells (E. coli)
T1 sequence (Q99828 1-191): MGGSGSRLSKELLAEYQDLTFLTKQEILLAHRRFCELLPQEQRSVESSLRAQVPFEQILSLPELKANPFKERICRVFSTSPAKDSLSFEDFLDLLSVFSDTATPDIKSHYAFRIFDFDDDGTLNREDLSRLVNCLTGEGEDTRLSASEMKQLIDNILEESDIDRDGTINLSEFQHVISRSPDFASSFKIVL

[2] = molecular target: T2, CIB1 and αIIb interaction (CIB1-GST : F-αIIb peptide) (Homo sapiens, UniProt Q99828); assay: FP assay, 1536-well qHTS format (primary and confirmatory screen); format: binding
T2 construct: made in house; host or cells: BL-21 plus RIL cells (E. coli)
T2 sequence (Q99828 1-191): T1 sequence (Q99828 1-191)

[3] = molecular target: T3, GST-CIB1 : F-scrambled peptide (Homo sapiens, UniProt Q99828); assay: FP scrambled-peptide counter screen, 1536-well format; format: binding
T3 construct: made in house; host or cells: BL-21 plus RIL cells (E. coli)
T3 sequence (Q99828 1-191): T1 sequence (Q99828 1-191)

washed human platelets = assay: Human platelet aggregation assay (thrombin-induced); format: cell-based; conditions: for inhibition at 10 µM: Homo sapiens, Platelet, single concentration of 10 μM (n = 3), thrombin; for Thrombin Assay 10 µM (%): platelet aggregation inhibition at 10 µM
Excerpt: A classical challenge in target-based drug discovery is moving from biochemical to cellular assay and the essential step of determining if the compounds of interest can perform in a cellular context. After characterization of the compounds in a series of biochemical assay formats, our next step was to assess their activity in a cellular environment. Our previous studies have shown that the interaction of the cytoplasmic domain of integrin αIIbβ3, a key regulator of platelet aggregation, with CIB1, is involved in downstream signaling in platelet activation and aggregation. We sought to determine whether our candidate compounds were inhibiting this interaction by evaluating them for platelet function in a human platelet aggregation assay. We prepared platelet-rich plasma (PRP) and washed the platelets as previously described[44] and then performed a platelet aggregation assay using the washed platelet suspensions (2 × 10^8/platelets/mL) followed by the recording of aggregation traces (see Materials and Methods Section). To induce platelet aggregation, 0.03 U/mL of thrombin, a physiological agonist of platelet activation, was used.
Figure 6 Effect of compounds on human platelet activation. Representative platelet aggregation tracings of washed human platelet suspensions pretreated for 30 min at 37 °C with vehicle (DMSO) or compounds at indicated concentrations followed by activation with thrombin (0.03–0.1 U/mL). Panel (A): NCGC00071855. Panel (B–D): NCGC00351170. Panel (E): CD62P exposure was in the presence of NCGC00351170. Data represents mean ± SEM, n = 4 individual experiments; ns = non significant *P < 0.05, ***P < 0.001, ****P < 0.0001.
Whole blood was drawn by venipuncture from healthy adult volunteers (of both gender and race) with informed consent. Approval was obtained from the institutional review boards of Thomas Jefferson University, according to the Declaration of Helsinki. Blood was collected in acidified citrate dextrose as an anticoagulant. Platelet-rich plasma (PRP) and washed platelets were prepared, as previously described.[44] Platelet aggregation was performed using washed platelet suspensions containing 2 × 10^8 platelets/mL using a Chrono-Log Lumi-Aggregometer (Chrono-Log), as described previously.[11] Aggregation traces were recorded by using Aggrolink software (Chrono-Log). Thrombin-induced P-selectin (CD62P) exposure was performed using Accuri C6 flowcytometer (BD Bioscience) as described previously.[11]
Figure S9: Effect of compounds on human platelet activation. Representative platelet aggregation
tracings of washed human platelet suspensions treated with vehicle (DMSO) or indicated
compounds at 10 μM for 30 minutes at 37 °C followed by activation with thrombin (0.03U/mL).

[4] = In vitro ADME: solubility; format: physicochemical
[5] = In vitro ADME: PAMPA permeability
[6] = molecular target: T3, GST-CIB1 : F-scrambled peptide; assay: FP scrambled-peptide counter screen, 384-well format; format: binding; conditions: for pIC50: read-out: 384-well COUNTERSCREEN IC50
[7] = molecular target: T4, GST-CIB1:F-αIIb interaction (Homo sapiens, UniProt Q99828); assay: Gel-based (in-gel) binding assay
T4 construct: made in house; host or cells: BL-21 plus RIL cells (E. coli)
T4 sequence (Q99828 1-191): T1 sequence (Q99828 1-191)

[8] = molecular target: T5, GST-CIB1 : F-αIIb peptide (Homo sapiens, UniProt Q99828); assay: FP assay in the presence of glutathione (GSH), thiol reactivity; format: binding
T5 construct: made in house; host or cells: BL-21 plus RIL cells (E. coli)
T5 sequence (Q99828 1-191): T1 sequence (Q99828 1-191)

[9] = 384-well FP assay, Table 1, read-out: FP assay IC50
[10] = confirmatory screen, qHTS curve class, negative sign = inhibitory curve
[11] = qHTS FP screen hits, Table S2, negative = inhibition
[12] = qHTS FP screen hits, Table S2, one class per curve where COUNT > 1, negative sign = inhibitory curve
[13] = qHTS FP screen hits, Table S2, read-out: IC50
[14] = confirmatory screen, YES/NO call
[15] = confirmatory screen, negative = inhibition
[16] = confirmatory screen, read-out: CONFIRMATORY SCREEN IC50
[17] = scrambled-peptide counterscreen
[18] = scrambled-peptide counterscreen, YES/NO call
[19] = scrambled-peptide counterscreen, qHTS curve class

Compound: Cc1ccc(C(=O)c2no[n+]([O-])c2C(=O)c2ccc(C)cc2)cc1.O=C(O)C(F)(F)F [NCGC00351163-01]
pIC50 [1, 9]: 5.18
Efficacy (%) (confirmatory screen) ([2]; confirmatory screen): -51%
Confirm? (confirmatory screen) ([2]; confirmatory screen, YES/NO): YES
Curve Class (confirmatory screen) [2, 10]: -1.4
IC50 ([2]; confirmatory screen, read-out: IC50 [μM] (confirmatory screen)): 5.6 µM
Efficacy (%) [2, 11]: -47%
Curve Class [2, 12]: -1.2
pIC50 [2, 13]: 4.95
Efficacy (%) (counterscreen) ([3]; counterscreen): -36%
Curve Class (counterscreen) ([3]; counterscreen, qHTS curve class, negative sign = inhibitory curve): -1.2
IC50 ([3]; counterscreen, read-out: IC50 [μM] (counterscreen)): 4 µM
inhibition at 10 µM (washed human platelets): 96%
Thrombin Assay 10 µM (%) (washed human platelets): 96%
solubility ([4]; read-out: Solubility): 12 µg/mL

pIC50 [1, 9]: 5.14
solubility ([4]; read-out: Solubility): > 64 µg/mL
Papp [5]: 11 ×10⁻⁶ cm/s
Compound: O=C(c1ccc(C(F)(F)F)cc1)c1no[n+]([O-])c1C(=O)c1ccc(C(F)(F)F)cc1 [NCGC00351164-01]
inhibition at 10 µM (washed human platelets): 98%
Thrombin Assay 10 µM (%) (washed human platelets): 98%

Compound: Cc1ccccc1C(=O)c1no[n+]([O-])c1C(=O)c1ccccc1C.O=C(O)C(F)(F)F [NCGC00351166-01]
pIC50 [1, 9]: 5.37
CONFIRMATORY SCREEN Confirm? [2, 14]: YES
CONFIRMATORY SCREEN Curve Class [2, 10]: -1.4
CONFIRMATORY SCREEN Efficacy (%) [2, 15]: -39%
pIC50 [2, 16]: 4.90
Efficacy (%) ([2]; qHTS primary screen hits, Table S2, negative = inhibition): -19%
Curve Class ([2]; qHTS primary screen hits, Table S2, negative sign = inhibitory curve, several classes where COUNT > 1): -2.4
pIC50 ([2]; qHTS primary screen hits, Table S2, read-out: IC50): 4.50
COUNTERSCREEN Efficacy (%) [3, 17]: -24%
COUNTERSCREEN Confirm? [3, 18]: YES
COUNTERSCREEN Curve Class [3, 19]: 4
inhibition at 10 µM (washed human platelets): 77%
Thrombin Assay 10 µM (%) (washed human platelets): 77%
solubility ([4]; read-out: Solubility): 2 µg/mL
Papp [5]: < 1 ×10⁻⁶ cm/s

solubility [4]: > 43 µg/mL
PAMPA [5]: < 1 10-6 cm/s
Compound: O=C(c1ccccc1)c1no[n+]([O-])c1C(=O)c1ccccc1 [NCGC00351168-01]

solubility ([4]; read-out: Solubility): 23 µg/mL (≈ 102 µM)
Papp [5]: 130 ×10⁻⁶ cm/s
Compound: O=C(c1cccs1)c1no[n+]([O-])c1CO [NCGC00354607-01]
inhibition at 10 µM (washed human platelets): 14%
Thrombin Assay 10 µM (%) (washed human platelets): 14%

Compound: CC(C)=CCC[C@]1(C)C=Cc2c(O)c3c(c(CC=C(C)C)c2O1)O[C@]12C(=C[C@@H]4CC1C(C)(C)O[C@@]2(C/C=C(/C)C(=O)O)C4=O)C3=O [NCGC00485239-01]
384-well SCREEN Efficacy (%) ([1]; F-αIIb peptide): 60%
384-well SCREEN Confirm? ([1]; F-αIIb peptide, YES/NO): YES
pIC50 ([1]; F-αIIb peptide, read-out: 384-well SCREEN IC50): 5.44
384-well COUNTERSCREEN Efficacy (%) ([6]; F-scrambled peptide): 40%
384-well COUNTERSCREEN Confirm? ([6]; F-scrambled peptide, *: Curve in opposite direction): YES
pIC50 ([6]; F-scrambled peptide): < 3.92
CONFIRMATORY SCREEN Confirm? [2, 14]: YES
CONFIRMATORY SCREEN Curve Class [2, 10]: -1.2
CONFIRMATORY SCREEN Efficacy (%) [2, 15]: -54%
pIC50 [2, 16]: 5.05
Efficacy (%) [2, 11]: -34%
Curve Class [2, 12]: -1.2
pIC50 [2, 13]: 4.95
COUNTERSCREEN Efficacy (%) [3, 17]: 32%
COUNTERSCREEN Confirm? [3, 18]: YES
COUNTERSCREEN Curve Class [3, 19]: 1.4
pIC50 ([3]; scrambled-peptide counterscreen, read-out: COUNTERSCREEN IC50): 4.90
Active in Gel Assay? ([7]; 1 μM GST-CIB1, 400 nM F-αIIb, 60 μM, 1:2, 4-points): YES
Inhibited concentration in gel (µM) ([7]; 1 μM GST-CIB1, 400 nM F-αIIb, concentrations tested 60, 30, 15, 7.5): 60,30 µM
pIC50 ([8]; FP assay in the presence of glutathione (GSH +), read-out: GSH (+) Assay IC50): 5.62
pIC50 ([8]; FP assay without glutathione (GSH -), read-out: GSH (-) Assay IC50): 5.70
GSH/CIB1 IC50 ratio ([8]; ratio of GSH (+) IC50 to GSH (-) IC50): 1.2
GSH Assay Result ([8]; thiol reactivity call: No change / Active): No change

Compound: thimerosal [NCGC00178879-04, reference compound]
384-well SCREEN Confirm? [1]: YES
384-well SCREEN Efficacy (%) [1]: 77%
pIC50 ([1]; read-out: 384-well SCREEN IC50): 5.55
384-well COUNTERSCREEN Confirm? [6]: YES
384-well COUNTERSCREEN Efficacy (%) [6]: 45%
pIC50 [6]: 5.15
CONFIRMATORY SCREEN Confirm? [2]: YES
CONFIRMATORY SCREEN Curve Class [2]: -1.2
CONFIRMATORY SCREEN Efficacy (%) [2]: -53%
Curve Class [2]: -1.2
Efficacy (%) [2]: -74%
pIC50 ([2]; read-out: CONFIRMATORY SCREEN IC50): 4.75
pIC50 ([2]; read-out: IC50): 4.65
COUNTERSCREEN Confirm? [3]: YES
COUNTERSCREEN Curve Class [3]: 3
COUNTERSCREEN Efficacy (%) [3]: 150%
Active in Gel Assay? [7]: YES
pIC50 ([8]; read-out: GSH (+) Assay IC50): 4.45
pIC50 ([8]; read-out: GSH (-) Assay IC50): 6.50
